≈ marks a conversion by molar mass, not a printed value.
What was measured:
[1] = rat models; cited from earlier work
[2] = DOSY NMR of saturated phenytoin with increasing polymer concentration; assay type: physicochemical; settings: deuterated PBS, poly(NIPAm70-co-DMA30) concentration increased (up to 1000 μg/mL)
[3] = aqueous settings; cited from earlier work

translational diffusion coefficient (D0) of phenytoin [2] | Structure (SMILES) | AUC over 24 h [1] [μg/mL-min] | solubility [3] [µg/mL]
 | O=C1NC(c2ccccc2)(c2ccccc2)C(=O)N1COP(=O)(O)O [fosphenytoin] | 1860 ± 310 | 
3.72 ± 0.19 × 10^–10 m^2/s | O=C1NC(=O)C(c2ccccc2)(c2ccccc2)N1 [phenytoin] |  | ~30 (≈ 119 µM)

Reference: article PMC5084074 (ACS Central Science, 2016)
